The subject of series [1] is mouse. The note with it: Chronic toxicity; b6c3f1; Oral; Feed; dose end: 2 year; group: systemic; systemic / clinical chemistry / alkaline phosphatase (alp/alk) / alkaline phosphatase (alp/alk) + systemic / organ weight / liver / absolute….
The test system of series [2] is mouse. The settings on record: Subchronic oral toxicity in rodents, B6C3F1, Feed, dose end: 3 month, group: systemic.
Series [3] deals with dog. The settings on record: Subchronic oral toxicity in nonrodent, beagle, Capsule, dose end: 90 day, group: systemic.
In series [4] the test system is dog. The settings on record: Chronic toxicity, beagle, Oral, Capsule, dose end: 52 week, group: systemic.
Series [5] relates to rat. The settings on record: Multigenerational reproductive toxicity study, fischer, Oral, Feed, dose end: 1 generation.
Series [6] has as its system rat. The settings on record: Combined chronic toxicity/carcinogenicity, fischer, Oral, Feed, dose end: 2 year, group: systemic.
For series [7], the system named is rat. The settings on record: Chronic toxicity, fischer, Oral, Feed, dose end: 1 year, group: systemic.
Series [8] concerns mouse. The note with it: Carcinogenicity, Charles River, Oral, Feed, dose end: 104 week, group: systemic.
Series [9] has as its system rat. The settings on record: Prenatal developmental toxicity study, sprague dawley, Oral, Gavage/Intubation, dose end: 15 GD.
In series [10] the test system is dog. The settings on record: Chronic toxicity; beagle; Oral; Feed; dose end: 52 week; group: systemic; systemic / organ weight / liver / relative to body weight + systemic / hematology / platelet / platelet + systemic / organ weight / kidney….
Setting [11] is: systemic / hematology / [other] / [other] + systemic / hematology / jolly bodies / jolly bodies + systemic / hematology / macrocytosis / ….
The mark [12] stands for this setting: systemic / hematology / polychromasia / polychromasia + systemic / hematology / lymphocyte / lymphocyte + systemic / in life observation / ….
[13] abbreviates: group: offspring, systemic / in life observation / clinical signs / urogenital staining + systemic / urinalysis / appearance and color / appearance and color.
[14] abbreviates: group: parental, systemic / organ weight / liver / absolute + systemic / organ weight / liver / relative to body weight + systemic / in life observation / ….
Where [15] appears, read: systemic / in life observation / clinical signs / urine, discoloration + systemic / clinical chemistry / glucose / glucose.
[16] abbreviates: systemic / pathology microscopic / mammary gland / fibroadenoma + systemic / clinical chemistry / urea nitrogen / urea nitrogen + systemic….
Setting [17] is: systemic / organ weight / adrenal gland / absolute + systemic / organ weight / adrenal gland / relative to body weight + systemic / organ ….
Where [18] appears, read: systemic / in life observation / body weight / body weight gain + systemic / pathology microscopic / lung / carcinoma + systemic / in life ….
Setting [19] is: group: developmental, developmental / developmental malformation / kidney / small renal papilla.
The mark [20] stands for this setting: group: developmental, developmental / developmental malformation / kidney / small renal papilla + developmental / developmental malformation / spinal cord / ….
Setting [21] is: group: maternal, systemic / in life observation / food consumption / food consumption + systemic / pathology gross / spleen / discolored.
[22] abbreviates: group: maternal, systemic / in life observation / food consumption / food consumption + systemic / pathology gross / spleen / discolored + reproductive / ….

SMILES strings stand for the structures.

What is called LOAEL is the lowest tested level that showed an adverse finding. Usually NOAEL stands for the highest tested level that showed no adverse finding. Regarding `C=C(C)CN(CC)c1c([N+](=O)[O-])cc(C(F)(F)F)cc1[N+](=O)[O-]` [Ethalfluralin], the LEL in the series with mouse [1] is 47 mg/kg/day; with mouse [2] (systemic / clinical chemistry / bilirubin / total bilirubin + systemic / organ weight / kidney / absolute), 136 mg/kg/day; in the series with dog [3] (systemic / in life observation / clinical signs / anorexia + systemic / in life observation / clinical signs / vomitting + systemic / in …), 125 mg/kg/day; with dog [4] (setting [12]), 4 mg/kg/day; in the series on rat [5] (setting [13]), 20 mg/kg/day; with rat [5] (group: parental, systemic / organ weight / liver / relative to body weight + systemic / in life observation / clinical signs / urogenital staining + systemic…) it was 20 mg/kg/day. Further, the LEL with rat [6] (setting [15]) and in the series with rat [7] (setting [17]) was 5 mg/kg/day throughout. The LOAEL was 47 mg/kg/day in the series with mouse [1]; 538 mg/kg/day in the series with mouse [2] (systemic / in life observation / body weight / body weight + systemic / in life observation / body weight / body weight gain); 125 mg/kg/day in the series on dog [3] (systemic / in life observation / clinical signs / anorexia + systemic / in life observation / clinical signs / vomitting); 20 mg/kg/day in the series with dog [4] (setting [11]); over 61 mg/kg/day in the series with rat [5] (setting [13]); 61 mg/kg/day with rat [5] (group: parental, systemic / organ weight / liver / absolute + systemic / organ weight / liver / relative to body weight). Also, the LOAEL was over 37.5 mg/kg/day in the series on rat [6] (setting [16]) and 37.5 mg/kg/day in the series on rat [7] (systemic / in life observation / body weight / body weight gain + systemic / organ weight / liver / relative to body weight). For the same molecule, the NEL in the series with mouse [1] is 11.6 mg/kg/day; with mouse [2] (systemic / in life observation / body weight / body weight gain + systemic / clinical chemistry / bilirubin / total bilirubin + systemic / …), 68 mg/kg/day; in the series on dog [4] (setting [12]), under 4 mg/kg/day; in the series with rat [5] (setting [13]) it was 8 mg/kg/day; in the series on rat [5] (setting [14]), 8 mg/kg/day; in the series with rat [6] (setting [15]), under 5 mg/kg/day. Besides, the NEL with rat [7] (setting [17]) is under 5 mg/kg/day. Moreover, the NOAEL with mouse [1] is 11.6 mg/kg/day; in the series on mouse [2] (systemic / in life observation / body weight / body weight + systemic / clinical chemistry / alanine aminotransferase (alt/sgpt) / alanine …), 285 mg/kg/day; with dog [4] (setting [11]) it was 4 mg/kg/day; in the series with rat [5] (setting [13]), at least 61 mg/kg/day; with rat [5] (setting [14]) it was 20 mg/kg/day; with rat [6] (setting [16]) it was at least 37.5 mg/kg/day. Moreover, in the series on rat [7] (systemic / in life observation / body weight / body weight gain + systemic / organ weight / liver / relative to body weight + systemic / …), the no-observed-adverse-effect level (NOAEL) worked out at 12.5 mg/kg/day.
Consider `CN(C)C(=O)Nc1cccc(C(F)(F)F)c1` [Fluometuron], for which the values for the lowest-observed-adverse-effect level (LOAEL) with mouse [8] (systemic / in life observation / body weight / body weight gain), in the series on rat [9] (setting [19]) and with rat [9] (setting [21]) were 260 mg/kg/day, 100 mg/kg/day and 100 mg/kg/day, respectively. Moreover, the NEL in the series with mouse [8] (setting [18]) was determined as 1.2 mg/kg/day; in the series on rat [9] (setting [20]), 10 mg/kg/day; in the series with rat [9] (setting [22]), 10 mg/kg/day; in the series with dog [10], 237 mg/kg/day. Besides, the no observed adverse effect level (NOAEL) was 61.5 mg/kg/day in the series with mouse [8] (setting [18]), 10 mg/kg/day with rat [9] (setting [20]), 10 mg/kg/day with rat [9] (setting [22]) and 237 mg/kg/day with dog [10]. Moreover, the LEL in the series with mouse [8] (systemic / pathology microscopic / lung / carcinoma + systemic / in life observation / clinical signs / [other]) is 61.5 mg/kg/day; with rat [9] (setting [19]) it was 100 mg/kg/day; in the series on rat [9] (setting [21]), 100 mg/kg/day.
